One assay deals with T1, human recombinant HDAC6 (Homo sapiens, UniProt Q9UBN7).
T1 construct: purchased Calbiochem Inc. 382180
T1 sequence (Q9UBN7 1-1215): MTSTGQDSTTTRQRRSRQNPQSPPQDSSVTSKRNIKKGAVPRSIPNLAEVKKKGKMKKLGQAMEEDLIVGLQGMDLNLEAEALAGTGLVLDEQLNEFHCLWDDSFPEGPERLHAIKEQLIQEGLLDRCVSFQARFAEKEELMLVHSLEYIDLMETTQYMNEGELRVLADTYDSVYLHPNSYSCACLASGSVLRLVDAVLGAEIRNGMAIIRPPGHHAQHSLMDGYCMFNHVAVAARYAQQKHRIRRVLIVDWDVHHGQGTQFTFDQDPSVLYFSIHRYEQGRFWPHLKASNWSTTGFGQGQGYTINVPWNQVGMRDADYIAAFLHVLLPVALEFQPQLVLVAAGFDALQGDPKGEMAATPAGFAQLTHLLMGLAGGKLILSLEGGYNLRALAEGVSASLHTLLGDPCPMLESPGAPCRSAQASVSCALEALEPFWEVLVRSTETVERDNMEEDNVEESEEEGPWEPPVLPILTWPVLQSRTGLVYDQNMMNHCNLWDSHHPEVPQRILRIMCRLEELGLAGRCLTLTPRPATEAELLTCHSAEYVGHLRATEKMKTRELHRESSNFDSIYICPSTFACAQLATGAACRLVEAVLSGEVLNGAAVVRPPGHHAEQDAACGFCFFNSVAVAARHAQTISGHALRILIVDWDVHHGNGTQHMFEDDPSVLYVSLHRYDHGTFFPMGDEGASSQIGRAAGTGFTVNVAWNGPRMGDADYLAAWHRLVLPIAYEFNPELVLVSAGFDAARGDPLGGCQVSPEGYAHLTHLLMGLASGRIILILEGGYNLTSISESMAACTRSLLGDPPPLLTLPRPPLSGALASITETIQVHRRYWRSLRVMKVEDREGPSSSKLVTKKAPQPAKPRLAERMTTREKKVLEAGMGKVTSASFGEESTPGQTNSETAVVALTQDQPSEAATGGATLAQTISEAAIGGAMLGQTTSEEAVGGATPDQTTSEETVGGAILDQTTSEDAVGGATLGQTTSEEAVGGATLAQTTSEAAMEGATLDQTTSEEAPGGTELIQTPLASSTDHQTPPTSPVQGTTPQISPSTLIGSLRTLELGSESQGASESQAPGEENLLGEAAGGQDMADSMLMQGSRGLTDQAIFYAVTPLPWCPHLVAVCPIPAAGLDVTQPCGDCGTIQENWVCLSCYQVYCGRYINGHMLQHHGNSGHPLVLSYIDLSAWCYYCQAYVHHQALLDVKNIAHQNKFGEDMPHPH
Description: In vitro HDAC enzyme activity inhibition assay (HDAC6). Format: biochemical. The conditions noted are these: for HDAC6 selectivity (fold): HDAC6 over HDAC1; for IC50: same protocol as the HDAC1 test, human recombinant HDAC6 (Calbiochem). Summed up:
(§1)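 Fluorimetric deacetylase kit: human recombinant HDAC1 or HDAC6 (0.3 μg) with 10 μM Fluor de Lys-SIRT1 substrate and 5-fold diluted compounds, 60 min at 30° C. Developer added for 30 min, fluorescence read at Ex 360/Em 460, IC50 calculated.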

A further assay has as its target T2, human recombinant HDAC1 (Homo sapiens, UniProt Q13547).
T2 construct: purchased Enzo Life Sciences, Inc. BML-SE456
Nature of the assay: In vitro HDAC enzyme activity inhibition assay (HDAC1). Format: biochemical. Conditions: Fluor de Lys-SIRT1 substrate 10 μM, 30° C., 60 minutes, fluorescence. In short, it runs like this: as §1

Each structure is given as a SMILES string.

T2 sequence (Q13547 whole entry): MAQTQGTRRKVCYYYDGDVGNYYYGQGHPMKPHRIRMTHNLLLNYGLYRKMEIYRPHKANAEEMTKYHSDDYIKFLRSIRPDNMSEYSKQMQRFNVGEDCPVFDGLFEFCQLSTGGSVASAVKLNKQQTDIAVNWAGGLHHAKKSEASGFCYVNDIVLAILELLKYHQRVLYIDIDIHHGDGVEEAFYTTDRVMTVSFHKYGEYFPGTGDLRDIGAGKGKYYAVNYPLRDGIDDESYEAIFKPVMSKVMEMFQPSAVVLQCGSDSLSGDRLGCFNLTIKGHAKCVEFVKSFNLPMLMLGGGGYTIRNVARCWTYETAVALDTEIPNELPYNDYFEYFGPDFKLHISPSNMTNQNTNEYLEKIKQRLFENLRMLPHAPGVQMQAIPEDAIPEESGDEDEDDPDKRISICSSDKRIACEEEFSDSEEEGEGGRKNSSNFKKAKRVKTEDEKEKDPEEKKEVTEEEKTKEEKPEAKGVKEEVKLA

What is called IC50 is the concentration needed to halve the response being measured. In the case of `O=S(=O)(N1CCN(C2CC3(COC3)C2)CC1)N(Cc1cn2ccc(-c3nnc(C(F)F)o3)cc2n1)c1cccc(F)c1` [Compound 4623, N-((7-(5-(difluoromethyl)-1,3,4-oxadiazol-2-yl)imidazo[1,2-a]pyridin-2-yl)methyl)-N-(3-fluorophenyl)-4-(2-oxaspiro[3.3]heptan-6-yl)piperazine-1-sulfonamide], on human recombinant HDAC6, the “HDAC6 selectivity (fold)” value worked out at 806 fold and the IC50 came out at 0.062 µM. Besides, the IC50 on human recombinant HDAC1 is above 50 µM.

For the molecule `CN1CC2(C1)CN(S(=O)(=O)N(Cc1cn3ccc(-c4nnc(C(F)F)o4)cc3n1)c1ccccc1)C2` [Compound 4624, N-((7-(5-(difluoromethyl)-1,3,4-oxadiazol-2-yl)imidazo[1,2-a]pyridin-2-yl)methyl)-6-methyl-N-phenyl-2,6-diazaspiro[3.3]heptan-2-sulfonamide], at human recombinant HDAC6, the “HDAC6 selectivity (fold)” value is reported as 595 fold and the IC50 came out at 0.084 µM. Further, the IC50 on human recombinant HDAC1 is above 50 µM.

For the molecule `CC(C)(C)OC(=O)N1CCC(S(=O)(=O)N(Cc2cn3ccc(-c4nnc(C(F)(F)F)o4)cc3n2)c2cccc(F)c2)CC1` [Compound 6893, tert-butyl 4-(N-(3-fluorophenyl)-N-((7-(5-(trifluoromethyl)-1,3,4-oxadiazol-2-yl)imidazo[1,2-a]pyridin-2-yl)methyl)sulfamoyl)piperidine-1-carboxylate], on human recombinant HDAC6, the “HDAC6 selectivity (fold)” value was 16 fold. Moreover, the IC50 at human recombinant HDAC6 was 3.12 µM; at human recombinant HDAC1 it was above 50 µM.
